Measurements taken from US7868020B2, “Quinolynylmethylimidizoles as therapeutic agents” (Allergan, Inc., priority 2007, dated 2011).

Key:
Alpha 2A = biological target: T1, Alpha 2A (Homo sapiens, UniProt P08913); assay: RSAT assay, Alpha 2A receptor; type: cell-based; settings: transfected NIH-3T3 cells, coexpressed Gq/i5
T1 construct: expressed in transfected cells; host or cells: NIH-3T3
T1 sequence (P08913 1-465): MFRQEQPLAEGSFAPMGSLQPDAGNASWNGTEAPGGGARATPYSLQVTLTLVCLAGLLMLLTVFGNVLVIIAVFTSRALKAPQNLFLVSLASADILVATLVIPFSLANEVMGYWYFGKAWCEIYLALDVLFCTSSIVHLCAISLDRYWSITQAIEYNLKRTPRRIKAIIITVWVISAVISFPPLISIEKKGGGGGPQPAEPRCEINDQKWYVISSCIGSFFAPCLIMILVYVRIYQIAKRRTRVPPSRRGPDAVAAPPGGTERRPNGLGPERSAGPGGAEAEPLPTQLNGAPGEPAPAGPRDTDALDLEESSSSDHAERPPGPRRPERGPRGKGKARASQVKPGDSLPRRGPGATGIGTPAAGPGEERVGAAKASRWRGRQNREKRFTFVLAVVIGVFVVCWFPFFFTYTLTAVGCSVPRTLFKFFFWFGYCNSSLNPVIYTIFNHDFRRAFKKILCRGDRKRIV
Description: (§1) The RSAT assay measures a receptor-mediated loss of contact inhibition that results in selective proliferation of receptor-containing cells in a mixed population of confluent cells. The increase in cell number is assessed with an appropriate transfected marker gene such as […]-galactosidase, the activity of which can be easily measured in a 96-well format. Receptors that activate the G protein, Gq, elicit this response. Alpha2 receptors, which normally couple to Gi, activate the RSAT response when coexpressed with a hybrid Gq protein that has a Gi receptor recognition domain, called Gq/i5.
NIH-3T3 cells are plated at a density of 2×10^6 cells in 15 cm dishes and maintained in Dulbecco's modified Eagle's medium supplemented with 10% calf serum. […] After washing with phosphate-buffered saline, β-galactosidase enzyme activity is determined by adding 200 μl of the chromogenic substrate (consisting of 3.5 mM o-nitrophenyl-β-D-galactopyranoside and 0.5% nonidet P-40 in phosphate buffered saline), incubating overnight at 30° C. and measuring optical density at 420 nm. The absorbance is a measure of enzyme activity, which depends on cell number and reflects a receptor-mediated cell proliferation. The efficacy or intrinsic activity is calculated as a ratio of the maximal effect of the drug to the maximal effect of a standard full agonist for each receptor subtype. […]

Alpha 2B = biological target: T2, Alpha 2B (Homo sapiens, UniProt P18089); assay: RSAT assay, Alpha 2B receptor; type: cell-based; settings: for EC50: RSAT, transfected NIH-3T3 cells, coexpressed Gq/i5; for Alpha 2B (IA) intrinsic activity: ratio of maximal effect to that of standard full agonist brimonidine
T2 construct: expressed in transfected cells; host or cells: NIH-3T3
T2 sequence (P18089 1-450): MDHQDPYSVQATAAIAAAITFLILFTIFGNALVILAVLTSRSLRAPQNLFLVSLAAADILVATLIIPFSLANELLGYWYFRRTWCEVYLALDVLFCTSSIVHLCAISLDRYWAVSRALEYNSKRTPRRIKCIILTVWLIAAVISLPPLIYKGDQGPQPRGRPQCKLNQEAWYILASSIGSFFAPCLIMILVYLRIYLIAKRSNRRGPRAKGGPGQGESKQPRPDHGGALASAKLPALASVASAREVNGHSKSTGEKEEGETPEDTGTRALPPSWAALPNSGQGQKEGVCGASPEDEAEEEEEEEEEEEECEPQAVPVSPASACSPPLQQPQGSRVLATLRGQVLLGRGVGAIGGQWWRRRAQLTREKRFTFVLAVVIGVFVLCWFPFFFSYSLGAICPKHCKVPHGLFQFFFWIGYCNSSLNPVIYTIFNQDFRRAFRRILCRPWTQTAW
Description: as §1
(§2) NIH-3T3 cells are plated at a density of 2×10^6 cells in 15 cm dishes and maintained in Dulbecco's modified Eagle's medium supplemented with 10% calf serum. One day later, cells are cotransfected by calcium phosphate precipitation with mammalian expression plasmids encoding p-SV-β-galactosidase (5-10 μg), receptor (1-2 μg) and G protein (1-2 μg). 40 μg salmon sperm DNA may also be included in the transfection mixture. Fresh media is added on the following day and 1-2 days later, cells are harvested and frozen in 50 assay aliquots. Cells are thawed and 100 μl added to 100 μl aliquots of various concentrations of drugs in triplicate in 96-well dishes. Incubations continue 72-96 hr at 37° C. After washing with phosphate-buffered saline, β-galactosidase enzyme activity is determined by adding 200 μl of the chromogenic substrate (consisting of 3.5 mM o-nitrophenyl-β-D-galactopyranoside and 0.5% nonidet P-40 in phosphate buffered saline), incubating overnight at 30° C. and measuring optical density at 420 nm. The absorbance is a measure of enzyme activity, which depends on cell number and reflects a receptor-mediated cell proliferation. The efficacy or intrinsic activity is calculated as a ratio of the maximal effect of the drug to the maximal effect of a standard full agonist for each receptor subtype. Brimonidine, also called UK14304, the chemical structure of which is shown below, is used as the standard agonist for the alpha2A, alpha2B and alpha2C receptors. The EC50 is the concentration at which the drug effect is half of its maximal effect.
(§3) The results of the RSAT assay with several exemplary compounds of the invention are disclosed in Table 1 above together with the chemical formulas of these exemplary compounds. EC50 values are nanomolar. NA stands for “not active” at concentrations less than 10 micromolar. IA stands for “intrinsic activity.”

Alpha 2C = biological target: T3, Alpha 2C (Homo sapiens, UniProt P18825); assay: RSAT assay, Alpha 2C receptor; type: cell-based; settings: for EC50: RSAT, transfected NIH-3T3 cells, coexpressed Gq/i5; for Alpha 2C (IA) intrinsic activity: ratio of maximal effect to that of standard full agonist brimonidine
T3 construct: expressed in transfected cells; host or cells: NIH-3T3
T3 sequence (P18825 1-462): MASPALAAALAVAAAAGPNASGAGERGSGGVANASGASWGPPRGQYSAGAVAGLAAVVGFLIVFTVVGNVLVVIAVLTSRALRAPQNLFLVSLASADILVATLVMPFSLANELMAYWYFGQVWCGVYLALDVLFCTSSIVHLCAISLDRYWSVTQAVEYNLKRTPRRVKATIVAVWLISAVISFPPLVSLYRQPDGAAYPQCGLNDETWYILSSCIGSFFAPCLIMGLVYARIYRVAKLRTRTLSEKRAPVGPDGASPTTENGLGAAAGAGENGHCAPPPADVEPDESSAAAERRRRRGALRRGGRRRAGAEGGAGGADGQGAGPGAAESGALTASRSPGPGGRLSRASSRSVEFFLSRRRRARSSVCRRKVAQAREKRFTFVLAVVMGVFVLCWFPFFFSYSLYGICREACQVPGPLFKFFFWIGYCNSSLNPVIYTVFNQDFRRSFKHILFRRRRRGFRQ
Description: as §1, §2, §3

Alpha 1A = biological target: T4, Alpha 1A (Homo sapiens, UniProt P35348); assay: RSAT assay, Alpha 1A receptor; type: cell-based; settings: for EC50: RSAT, transfected NIH-3T3 cells; for Alpha 1A (IA) intrinsic activity: ratio of maximal effect of drug to maximal effect of standard full agonist
T4 construct: expressed in transfected cells; host or cells: NIH-3T3
T4 sequence (P35348 1-466): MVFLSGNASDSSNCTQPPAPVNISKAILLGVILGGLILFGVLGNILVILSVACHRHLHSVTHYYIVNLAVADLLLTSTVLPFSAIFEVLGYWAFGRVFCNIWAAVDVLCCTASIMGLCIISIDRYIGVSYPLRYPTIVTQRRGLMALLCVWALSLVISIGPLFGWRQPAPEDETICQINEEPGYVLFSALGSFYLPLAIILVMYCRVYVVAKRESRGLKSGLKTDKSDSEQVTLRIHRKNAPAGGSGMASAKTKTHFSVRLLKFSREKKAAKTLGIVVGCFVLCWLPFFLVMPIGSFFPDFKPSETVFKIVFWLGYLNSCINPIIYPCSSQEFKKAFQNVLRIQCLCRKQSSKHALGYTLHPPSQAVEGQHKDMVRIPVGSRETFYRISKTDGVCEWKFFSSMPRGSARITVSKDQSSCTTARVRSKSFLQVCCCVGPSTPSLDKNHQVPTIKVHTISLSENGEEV
Description: as §1, §2, §3

[1] = in vitro assay (not specified) of separated enantiomers; settings: enantiomers separated by chiral HPLC
Source text: Compound (6) was separated by chiral HPLC: […]® OD with 85% hexane and 15% ethanol at rt. The (+)-7-(5-methyl-1H-imidazol-4-ylmethyl)-5,6,7,8-tetrahydro-quinoline (8) corresponding to the second eluting peak was active in an in vitro assay.

Structure (SMILES) | EC50 (Alpha 2A) | EC50 (Alpha 2B) | Alpha 2B (IA) intrinsic activity (Alpha 2B) | EC50 (Alpha 2C) | Alpha 2C (IA) intrinsic activity (Alpha 2C) | EC50 (Alpha 1A) | Alpha 1A (IA) intrinsic activity (Alpha 1A) | activity in an in vitro assay [1]
Cc1[nH]cnc1CC1CCc2cccnc2C1 (stereo not shown) [drawing 15] | > 10000 nM | 57 nM | 0.32 | 207 nM | 0.63 | 3340 nM | 0.66 | –
Cc1[nH]cnc1CC1CCc2cccnc2C1 (single isomer, unassigned; (+)) [Compound 8, (+)-7-(5-methyl-1H-imidazol-4-ylmethyl)-5,6,7,8-tetrahydro-quinoline] | – | – | – | – | – | – | – | active
Cc1[nH]cnc1CC1CCc2cccnc2C1 (single isomer, unassigned; (-)) [Compound 7, (−)-7-(5-methyl-1H-imidazol-4-ylmethyl)-5,6,7,8-tetrahydro-quinoline] | – | – | – | – | – | – | – | inactive
Cc1[nH]cnc1CC1CCc2cccnc2C1 (stereo not shown) [drawing 16] | > 10000 nM | 37 nM | 0.7 | 366 nM | 0.47 | 876 nM | 0.66 | –
